Measurements as given in patent US11708366B2, “Heteroaryl substituted spiropiperidinyl derivatives and pharmaceutical uses thereof” (Novartis AG, priority 2020, dated 2023).

Target: LTC4S (Homo sapiens (Human), UniProt Q16873)
Experiment: Human whole blood HTRF assay (LTC4 release after calcium ionophore A23187)
Format: cell-based
Conditions: human whole blood diluted 1:3, 4 h incubation, calcium ionophore A23187 stimulation, LTC4 by HTRF; read-out: human whole blood HTRF IC50
Experimental: B. Human Whole Blood HTRF Assay
LTC4 synthase catalyzes the conversion of Leukotriene A4 (LTA4) to Leukotriene C4 (LTC4) in the presence of reduced glutathione (GSH) as a co-substrate. For testing the inhibition of LTC4S, compounds are prepared for either eight-point or sixteen-point dose response studies in 384-well Labcyte low dead volume (LDV) plates. For eight-point dose response studies, compounds are diluted 1:5 starting at 1 μM concentration in 90% DMSO. […] Compounds are studied in duplicates. Ten wells are filled with 90% DMSO which correspond to the stimulated and unstimulated control wells. […] The morning of the assay, whole blood is collected from three human donors. Donors must be non-smokers and must not have taken NSAIDs within the 48 hours prior to blood collection. The amount of blood collected per donor depends on the amount of compounds to be tested and the dose response format in which they are to be studied (about 8 mL of whole blood for either 22 compounds in 8-point dose response format or 11 compounds in 16-point dose response format). […] 50 μL of diluted blood are then dispensed into each assay plate well with pre-dispensed compounds and DMSO for the stimulated and unstimulated controls using a Thermo Scientific™ Multidrop™ Combi reagent dispenser, and incubated at 37° C. for 4 hours. Calcium ionophore A23187 is used to induce a rapid increase in intracellular levels of Ca^2+. The Ca^2+ functions as a universal second messenger in various immune cells, such as T cells, B cells and mast cells, and is used to induce degranulation and release of eicosanoids, including LTC4, by cells contained in the whole blood samples. […] All but the unstimulated control wells are subsequently stimulated by dispensing 1 μL of the 0.5 mg/mL calcium ionophore suspension using the Thermo Scientific™ Multidrop™ Combi reagent dispenser. Plates are incubated for 15 minutes at 37° C. Plates are then centrifuged at 300 g for 10 minutes at room temperature to pellet blood cells and stop the reaction. […] Plates are sealed and stored at −80° C.
In order to measure the amount of LTC4 released by cells in the human blood samples during calcium ionophore stimulation, supernatants are analyzed using the Cisbio LTC4 homogeneous time-resolved FRET (HTRF) kit (Cisbio #64LC4PEH). […] Ten serially diluted standard curve solutions are also dispensed in duplicate into each plate as instructed in the protocol. Blank controls and cryptate control wells are also prepared. Then, 5 μL of anti-LTC4-d2 working solution are dispensed into all the wells, but the cryptate control wells. Subsequently, 5 μL of anti-LTC4-Eu3+ cryptate working solution are dispensed into all the wells. Plates are then covered with a lid and incubated at room temperature for one hour with gentle orbital shaking (˜450 rpm). […] HTRF ratios are calculated for each well by dividing the 665 nm intensity by the 620 nm intensity, and multiplying the resulting ratio by 10,000. LTC4 standard curves are interpolated for each plate and used to convert the HTRF ratio readouts into the amount of LTC4 present in each well (in ng/mL). Parametric curve fitting is used to obtain inhibition curves and IC50 values.

SMILES | IC50 [µM]
Cn1cc(C2=CCC(F)(F)CC2)nc(N2CCC3(CCCC(=O)N3c3ccc(F)c(F)c3)CC2)c1=O [Example 19, 9-(6-(4,4-difluorocyclohex-1-en-1-yl)-4-methyl-3-oxo-3,4-dihydropyrazin-2-yl)-1-(3,4-difluorophenyl)-1,9-diazaspiro[5.5]undecane-2-one] | 0.003
O=C1CCCC2(CCN(c3cc(Oc4cccc(Cl)c4)cc[n+]3[O-])CC2)N1c1ccc(F)c(F)c1 [Example 34, 4-(3-chlorophenoxy)-2-(1-(3,4-difluorophenyl)-2-oxo-1,9-diazaspiro[5.5]undecan-9-yl)pyridine 1-oxide] | 0.002
NC1(C(F)(F)F)CCN(c2ccnc(N3CCC4(CCCC(=O)N4c4ccc(F)c(F)c4)CC3)n2)CC1 [Example 39, 9-(4-(4-amino-4-(trifluoromethyl)piperidin-1-yl)pyrimidin-2-yl)-1-(3,4-difluorophenyl)-1,9-diazaspiro[5.5]undecan-2-one] | 0.004
O=C1CCCC2(CCN(c3ncnc(N4CCC(O)(C(F)(F)F)CC4)n3)CC2)N1c1ccc(F)c(F)c1 [Example 40, 1-(3,4-difluorophenyl)-9-(4-(4-hydroxy-4-(trifluoromethyl)piperidin-1-yl)-1,3,5-triazin-2-yl)-1,9-diazaspiro[5.5]undecan-2-one] | 0.004
Nc1nc(N2CCC3(CCCC(=O)N3c3ccc(F)c(F)c3)CC2)c(F)c(N2CCC(O)(C(F)(F)F)CC2)n1 [Example 41, 9-(2-amino-5-fluoro-6-(4-hydroxy-4-(trifluoromethyl)piperidin-1-yl)pyrimidin-4-yl)-1-(3,4-difluorophenyl)-1,9-diazaspiro[5.5]undecan-2-one] | 0.005
O=C1CCCC2(CCN(c3cnnc(N4CCC(O)(C(F)(F)F)CC4)c3)CC2)N1c1ccc(F)c(F)c1 [Example 42, 1-(3,4-difluorophenyl)-9-(6-(4-hydroxy-4-(trifluoromethyl)piperidin-1-yl)pyridazin-4-yl)-1,9-diazaspiro[5.5]undecan-2-one] | 0.41
CC1(O)CN(c2nc(N)cc(N3CCC4(CCCC(=O)N4c4ccc(F)c(F)c4)CC3)n2)C1 [Example 43, 9-(6-amino-2-(3-hydroxy-3-methylazetidin-1-yl)pyrimidin-4-yl)-1-(3,4-difluorophenyl)-1,9-diazaspiro[5.5]undecan-2-one] | 0.4
O=C1CCCC2(CCN(c3cc(N4CCCOCC4)ncn3)CC2)N1c1ccc(F)c(F)c1 [Example 45, 9-(6-(1,4-oxazepan-4-yl)pyrimidin-4-yl)-1-(3,4-difluorophenyl)-1,9-diazaspiro[5.5]undecan-2-one] | 0.62
O=C1CCCC2(CCN(c3cc(-n4cc(C(F)(F)F)cn4)ncn3)CC2)N1c1ccc(F)c(F)c1 [Example 47, 1-(3,4-difluorophenyl)-9-(6-(4-(trifluoromethyl)-1H-pyrazol-1-yl)pyrimidin-4-yl)-1,9-diazaspiro[5.5]undecan-2-one] | 0.007
Cc1nc(N2CCC3(CCCC(=O)N3c3ccc(F)c(F)c3)CC2)cc(-n2cccn2)n1 [Example 48, 1-(3,4-difluorophenyl)-9-(2-methyl-6-(1H-pyrazol-1-yl)pyrimidin-4-yl)-1,9-diazaspiro[5.5]undecan-2-one] | 0.045
N#Cc1nc(N2CCC3(CCCC(=O)N3c3ccc(F)c(F)c3)CC2)cc(-n2cccn2)n1 [Example 49, 4-(1-(3,4-difluorophenyl)-2-oxo-1,9-diazaspiro[5.5]undecan-9-yl)-6-(1H-pyrazol-1-yl)pyrimidine-2-carbonitrile] | 0.088
COc1nc(N2CCC3(CCCC(=O)N3c3ccc(F)c(F)c3)CC2)cc(-n2cccn2)n1 [Example 50, 1-(3,4-difluorophenyl)-9-(2-methoxy-6-(1H-pyrazol-1-yl)pyrimidin-4-yl)-1,9-diazaspiro[5.5]undecan-2-one] | 0.045
O=C1CCCC2(CCN(c3cc(-n4cccn4)nc(C(F)(F)F)n3)CC2)N1c1ccc(F)c(F)c1 [Example 51, 9-(6-(1H-pyrazol-1-yl)-2-(trifluoromethyl)pyrimidin-4-yl)-1-(3,4-difluorophenyl)-1,9-diazaspiro[5.5]undecan-2-one] | 0.07
O=C1CCCC2(CCN(c3cc(-n4cccn4)nc(N4CCOCC4)n3)CC2)N1c1ccc(F)c(F)c1 [Example 52, 1-(3,4-difluorophenyl)-9-(2-morpholino-6-(1H-pyrazol-1-yl)pyrimidin-4-yl)-1,9-diazaspiro[5.5]undecan-2-one] | 0.029
CN(C)c1nc(N2CCC3(CCCC(=O)N3c3ccc(F)c(F)c3)CC2)cc(-n2cccn2)n1 [Example 53, 1-(3,4-difluorophenyl)-9-(2-(dimethylamino)-6-(1H-pyrazol-1-yl)pyrimidin-4-yl)-1,9-diazaspiro[5.5]undecan-2-one] | 1.14
O=C1CCCC2(CCN(c3cc(-n4cncn4)ncn3)CC2)N1c1ccc(F)c(F)c1 [Example 54, 9-(6-(1H-1,2,4-triazol-1-yl)pyrimidin-4-yl)-1-(3,4-difluorophenyl)-1,9-diazaspiro[5.5]undecan-2-one] | 0.3
O=C1CCCC2(CCN(c3cc(-n4cc(Cl)cn4)ncn3)CC2)N1c1ccc(F)c(F)c1 [Example 55, 9-(6-(4-chloro-1H-pyrazol-1-yl)pyrimidin-4-yl)-1-(3,4-difluorophenyl)-1,9-diazaspiro[5.5]undecan-2-one] | 0.006
O=C1CCCC2(CCN(c3cc(-n4cc(F)cn4)ncn3)CC2)N1c1ccc(F)c(F)c1 [Example 56, 9-(6-(4-fluoro-1H-pyrazol-1-yl)pyrimidin-4-yl)-1-(3,4-difluorophenyl)-1,9-diazaspiro[5.5]undecan-2-one] | 0.017
O=C1CCCC2(CCN(c3cc(-n4ccc(C(F)(F)F)n4)ncn3)CC2)N1c1ccc(F)c(F)c1 [Example 57, 1-(3,4-difluorophenyl)-9-(6-(3-(trifluoromethyl)-1H-pyrazol-1-yl)pyrimidin-4-yl)-1,9-diazaspiro[5.5]undecan-2-one] | 0.85
O=C1CCCC2(CCN(c3cc(-n4cnc(C(F)(F)F)c4)ncn3)CC2)N1c1ccc(F)c(F)c1 [Example 58, 1-(3,4-difluorophenyl)-9-(6-(4-(trifluoromethyl)-1H-imidazol-1-yl)pyrimidin-4-yl)-1,9-diazaspiro[5.5]undecan-2-one] | 0.56
Nc1nc(N2CCC3(CCCC(=O)N3c3ccc(F)c(F)c3)CC2)c(F)c(-n2cccn2)n1 [Example 59, 9-(2-amino-5-fluoro-6-(1H-pyrazol-1-yl)primidin-4-yl)-1-(3,4-difluorophenyl)-1,9-diazaspiro[5.5]undecan-2-one] | 0.64
Nc1nc(N2CCC3(CCCC(=O)N3c3ccc(F)c(F)c3)CC2)nc(-n2cc(F)cn2)n1 [Example 60, 9-(4-amino-6-(4-fluoro-1H-pyrazol-1-yl)-1,3,5-triazin-2-yl)-1-(3,4-difllorophenyl)-1,9-diazaspiro[5.5]undecan-2-one] | 0.68
O=C1CCCC2(CCN(c3cc(OC4COC4)nc(C(F)(F)F)n3)CC2)N1c1ccc(F)c(F)c1 [Example 61, 1-(3,4-difluorophenyl)-9-(6-(oxetan-3-yloxy)-2-(trifluoromethyl)pyrimidin-4-yl)-1,9-diazaspiro[5.5]undecan-2-one] | 0.029
O=C1CCCC2(CCN(c3cc(-c4ncco4)ncn3)CC2)N1c1ccc(F)c(F)c1 [Example 62, 1-(3,4-difluorophenyl)-9-(6-(oxazol-2-yl)pyrimidin-4-yl)-1,9-diazaspiro[5.5]undecan-2-one] | 0.41
Nc1cc(N2CCC3(CCCC(=O)N3c3ccc(F)c(F)c3)CC2)nc(-c2ccccn2)n1 [Example 63, 9-(6-amino-2-(pyridin-2-yl)pyrimidin-4-yl)-1-(3,4-difluorophenyl)-1,9-diazaspiro[5.5]undecan-2-one] | 0.43
Nc1nc(N2CCC3(CCCC(=O)N3c3ccc(F)c(F)c3)CC2)cc(-n2cc(C(F)(F)F)cn2)n1 [Example 64, 9-(2-amino-6-(4-(trifluoromethyl)-1H-pyrazol-1-yl)pyrimidin-4-yl)-1-(3,4-difluorophenyl)-1,9-diazaspiro[5.5]undecane-2-one] | 0.002
